Measurements published in patent US10196403B2, “Compounds and compositions and uses thereof” (Sunovion Pharmaceuticals Inc., priority 2016, dated 2019).

Test system: mice
Assay: Neuropharmacological Assay (SmartCube)
Assay type: in vivo
Details: for minimal effective dose: Mus musculus, MED = dose having 50% or more total activity in SmartCube, read-out: POTENCY (minimal effective dose, MED); for AD: ADHD (SmartCube probability) / AG: analgesic (SmartCube probability) / AX: anxiolytic (SmartCube probability) / CE: cognitive enhancer (SmartCube probability) / DP: anti-depressant (SmartCube probability) / MS: mood stabilizer (SmartCube probability) / PS: anti-psychotic (SmartCube probability) / SD: sedative hypnotic (SmartCube probability) / UN: uncharacterized CNS activity (SmartCube probability): mice, i.p. 15 min before test, most efficacious dose(s) of 3 doses
Description: Neuropharmacological Assay (SmartCube™)
Neurosci. 2011 Sep. 9; 5:103 (doi: 10.3389/fnins.2011.00103) (“Roberds”). As reported in Roberds, because psychiatric diseases generally result from disorders of cell-cell communication, circuitry, intact systems are useful in detecting improvement in disease-relevant endpoints. These endpoints are typically behavioral in nature, often requiring human observation and interpretation. To facilitate testing of multiple compounds for behavioral effects relevant to psychiatric disease, PsychoGenics, Inc. (Tarrytown, N.Y., “PGI”) developed SmartCube™, an automated system in which behaviors of compound-treated mice are captured by digital video and analyzed with computer algorithms. (D. Brunner et al., Drug Discov. Today 2002, 7:S107-S112). PGI Analytical Systems uses data from SmartCube™ to compare the behavioral signature of a test compound to a database of behavioral signatures obtained using a large set of diverse reference compounds. (The composition of the database as well as validation of the method is further described in Roberds). In this way, the neuropharmacological effects of a test compound can be predicted by similarity to major classes of compounds, such as antipsychotics, anxiolytics and antidepressants.
The SmartCube™ system produces an activity signature indicating the probability that the activity of the test compound at the administered dose matches a given class of neuropharmacological agents. (See, e.g., Roberds, FIGS. 2 and 3). The test compound is simultaneously compared against multiple classes of agents; thus, a separate probability is generated for each behavioral effect measured (e.g., anxiolytic activity, analgesic activity, etc.). In the table below, these probabilities are reported for each behavioral effect measured as follows:
where LOQ is the limit of quantification.
Provided compounds were dissolved in a mixture of Pharmasolve™ (N-methyl-2-pyrrolidone), polyethylene glycol and propylene glycol, and were injected i.p. 15 min. before the behavioral test. For each compound, injections were administered at 3 different doses. For each behavioral effect measured, results for the most efficacious dose(s) are presented. In the table below, DP: anti-depressant; AX: anxiolytic; SD: sedative hypnotic; PS: anti-psychotic; MS: mood stabilizer; AD: ADHD; CE: cognitive enhancer; AG: analgesic; UN: uncharacterized CNS activity.
The potency of many of the compounds in the table was also determined in the SmartCube™ system. Test compounds were routinely examined at dose levels of 0.3, 1, 3 10 and 30 mg per kg (mpk), although the dose range was increased or decreased if necessary to obtain a full dose response curve. A compound's minimal effective dose (MED) is a measure of the compounds potency. The MED was defined as the dose (in mpk) having 50% or more total activity in SmartCube.

In the case of `NC[C@H]1OCCc2ccc3c(c21)OCO3` [Example 7, (S)-(6,9-dihydro-7H-[1,3]dioxolo[4,5-h]isochromen-9-yl)methanamine], the minimal effective dose is reported as under 3 mg/kg, the “AD: ADHD (SmartCube probability)” value is reported as “++ (5%≤ ++ <25%)” and the “AG: analgesic (SmartCube probability)” value is reported as “+++ (25%≤ +++ <50%)”. The “AX: anxiolytic (SmartCube probability)” value was “+++ (25%≤ +++ <50%)”, the “CE: cognitive enhancer (SmartCube probability)” value (“CE: cognitive enhancer” below) was “++ (5%≤ ++ <25%)” and the “DP: anti-depressant (SmartCube probability)” value (“DP: anti-depressant” for short) was “++ (5%≤ ++ <25%)”. The “MS: mood stabilizer (SmartCube probability)” value (shortened to “MS: mood stabilizer”) was “++ (5%≤ ++ <25%)”, the “PS: anti-psychotic (SmartCube probability)” value (“PS: anti-psychotic” below) was “++ (5%≤ ++ <25%)” and the “SD: sedative hypnotic (SmartCube probability)” value (“SD: sedative hypnotic” for short) was “+ (LOQ≤ + <5%)”. The “UN: uncharacterized CNS activity (SmartCube probability)” value (“UN: uncharacterized CNS activity” for short) was “++ (5%≤ ++ <25%)”.

For `NC[C@@H]1OCCc2ccc3c(c21)OCO3` [Example 8, (R)-(6,9-dihydro-7H-[1,3]dioxolo[4,5-h]isochromen-9-yl)methanamine], the minimal effective dose was 3 to 10 mg/kg, the “AD: ADHD (SmartCube probability)” value was “+ (LOQ≤ + <5%)” and the “AG: analgesic (SmartCube probability)” value was “++ (5%≤ ++ <25%)”. The “AX: anxiolytic (SmartCube probability)” value was “++ (5%≤ ++ <25%)”, the “CE: cognitive enhancer” value was “++ (5%≤ ++ <25%)” and the “DP: anti-depressant” value was “++ (5%≤ ++ <25%)”. For the same molecule, the “MS: mood stabilizer” value was “+ (LOQ≤ + <5%)”, the “PS: anti-psychotic” value was “++ (5%≤ ++ <25%)” and the “SD: sedative hypnotic” value was “+ (LOQ≤ + <5%)”. The “UN: uncharacterized CNS activity” value was “+++ (25%≤ +++ <50%)”.

In the case of `CNC[C@H]1OCCc2ccc3c(c21)OCCO3` [Example 9, (S)-N-methyl-1-(2,3,7,10-tetrahydro-8H-[1,4]dioxino[2,3-h]isochromen-10-yl)methanamine], the minimal effective dose is reported as 3 to 10 mg/kg, the “AD: ADHD (SmartCube probability)” value is reported as “+ (LOQ≤ + <5%)” and the “AG: analgesic (SmartCube probability)” value is reported as “++ (5%≤ ++ <25%)”. The “AX: anxiolytic (SmartCube probability)” value was “++ (5%≤ ++ <25%)”, the “CE: cognitive enhancer” value was “+ (LOQ≤ + <5%)” and the “DP: anti-depressant” value was “+++ (25%≤ +++ <50%)”. The “MS: mood stabilizer” value was “++ (5%≤ ++ <25%)”, the “PS: anti-psychotic” value was “++ (5%≤ ++ <25%)” and the “SD: sedative hypnotic” value was “++ (5%≤ ++ <25%)”. The “UN: uncharacterized CNS activity” value was “+++ (25%≤ +++ <50%)”.

For `CNC[C@@H]1OCCc2ccc3c(c21)OCCO3` [Example 10, (R)-N-methyl-1-(2,3,7,10-tetrahydro-8H-[1,4]dioxino[2,3-h]isochromen-10-yl)methanamine], the minimal effective dose was 10 to 30 mg/kg, the “AD: ADHD (SmartCube probability)” value was “+ (LOQ≤ + <5%)” and the “AG: analgesic (SmartCube probability)” value was “+ (LOQ≤ + <5%)”. The “AX: anxiolytic (SmartCube probability)” value was “++ (5%≤ ++ <25%)”, the “CE: cognitive enhancer” value was “++ (5%≤ ++ <25%)” and the “DP: anti-depressant” value was “++ (5%≤ ++ <25%)”. For the same molecule, the “MS: mood stabilizer” value was “+ (LOQ≤ + <5%)”, the “PS: anti-psychotic” value was “++ (5%≤ ++ <25%)” and the “SD: sedative hypnotic” value was “+ (LOQ≤ + <5%)”. For the same molecule, the “UN: uncharacterized CNS activity” value was “+++ (25%≤ +++ <50%)”.

With `NC[C@H]1OCCc2c1ccc1c2OCO1` [Example 11, (S)-(8,9-dihydro-6H-[1,3]dioxolo[4,5-f]isochromen-6-yl)methanamine] the minimal effective dose was 3 to 10 mg/kg, the “AD: ADHD (SmartCube probability)” value was “++ (5%≤ ++ <25%)” and the “AG: analgesic (SmartCube probability)” value was “+ (LOQ≤ + <5%)”. The “AX: anxiolytic (SmartCube probability)” value was “+ (LOQ≤ + <5%)”, the “CE: cognitive enhancer” value was “+ (LOQ≤ + <5%)” and the “DP: anti-depressant” value was “++++ (50%≤ ++++)”. The “MS: mood stabilizer” value was “+ (LOQ≤ + <5%)”, the “PS: anti-psychotic” value was “+ (LOQ≤ + <5%)” and the “SD: sedative hypnotic” value was “+ (LOQ≤ + <5%)”. For the same molecule, the “UN: uncharacterized CNS activity” value was “+ (LOQ≤ + <5%)”.

With `NC[C@@H]1OCCc2c1ccc1c2OCO1` [Example 12, (R)-(8,9-dihydro-6H-[1,3]dioxolo[4,5-f]isochromen-6-yl)methanamine] the minimal effective dose was 3 to 10 mg/kg, the “AD: ADHD (SmartCube probability)” value was “+ (LOQ≤ + <5%)” and the “AG: analgesic (SmartCube probability)” value was “++ (5%≤ ++ <25%)”. For the same molecule, the “AX: anxiolytic (SmartCube probability)” value was “+ (LOQ≤ + <5%)”, the “CE: cognitive enhancer” value was “+ (LOQ≤ + <5%)” and the “DP: anti-depressant” value was “++++ (50%≤ ++++)”. For the same molecule, the “MS: mood stabilizer” value was “+ (LOQ≤ + <5%)”, the “PS: anti-psychotic” value was “++ (5%≤ ++ <25%)” and the “SD: sedative hypnotic” value was “++ (5%≤ ++ <25%)”. For the same molecule, the “UN: uncharacterized CNS activity” value was “++ (5%≤ ++ <25%)”.

With `CNC[C@H]1OCCc2ccc(F)cc21` [Example 13, (S)-1-(7-fluoroisochroman-1-yl)-N-methylmethanamine] the minimal effective dose was 10 to 30 mg/kg, the “AD: ADHD (SmartCube probability)” value was “+ (LOQ≤ + <5%)” and the “AG: analgesic (SmartCube probability)” value was “++ (5%≤ ++ <25%)”. For the same molecule, the “AX: anxiolytic (SmartCube probability)” value was “++ (5%≤ ++ <25%)”, the “CE: cognitive enhancer” value was “+ (LOQ≤ + <5%)” and the “DP: anti-depressant” value was “++ (5%≤ ++ <25%)”. For the same molecule, the “MS: mood stabilizer” value was “+ (LOQ≤ + <5%)”, the “PS: anti-psychotic” value was “+ (LOQ≤ + <5%)” and the “SD: sedative hypnotic” value was “++ (5%≤ ++ <25%)”. For the same molecule, the “UN: uncharacterized CNS activity” value was “+++ (25%≤ +++ <50%)”.

In the case of `CNC[C@@H]1OCCc2ccc(F)cc21` [Example 15, (R)-1-(7-fluoroisochroman-1-yl)-N-methylmethanamine], the minimal effective dose is reported as under 3 mg/kg, the “AD: ADHD (SmartCube probability)” value is reported as “+ (LOQ≤ + <5%)” and the “AG: analgesic (SmartCube probability)” value is reported as “++ (5%≤ ++ <25%)”. For the same molecule, the “AX: anxiolytic (SmartCube probability)” value was “++ (5%≤ ++ <25%)”, the “CE: cognitive enhancer” value was “++ (5%≤ ++ <25%)” and the “DP: anti-depressant” value was “++ (5%≤ ++ <25%)”. The “MS: mood stabilizer” value was “++ (5%≤ ++ <25%)”, the “PS: anti-psychotic” value was “+++ (25%≤ +++ <50%)” and the “SD: sedative hypnotic” value was “++ (5%≤ ++ <25%)”. For the same molecule, the “UN: uncharacterized CNS activity” value was “+++ (25%≤ +++ <50%)”.

`CNC[C@H]1OCCc2cc(F)ccc21` [Example 16, (S)-1-(6-fluoroisochroman-1-yl)-N-methylmethanamine] was tested, and the minimal effective dose was 10 to 30 mg/kg, the “AD: ADHD (SmartCube probability)” value was “+ (LOQ≤ + <5%)” and the “AG: analgesic (SmartCube probability)” value was “++ (5%≤ ++ <25%)”. The “AX: anxiolytic (SmartCube probability)” value was “++ (5%≤ ++ <25%)”, the “CE: cognitive enhancer” value was “+ (LOQ≤ + <5%)” and the “DP: anti-depressant” value was “++ (5%≤ ++ <25%)”. For the same molecule, the “MS: mood stabilizer” value was “+ (LOQ≤ + <5%)”, the “PS: anti-psychotic” value was “+++ (25%≤ +++ <50%)” and the “SD: sedative hypnotic” value was “++ (5%≤ ++ <25%)”. For the same molecule, the “UN: uncharacterized CNS activity” value was “+ (LOQ≤ + <5%)”.

`CNC[C@H]1OCCc2c(F)cccc21` [Example 18, (S)-1-(5-fluoroisochroman-1-yl)-N-methylmethanamine] was tested, and the minimal effective dose was 10 to 30 mg/kg, the “AD: ADHD (SmartCube probability)” value was “+ (LOQ≤ + <5%)” and the “AG: analgesic (SmartCube probability)” value was “++ (5%≤ ++ <25%)”. For the same molecule, the “AX: anxiolytic (SmartCube probability)” value was “++ (5%≤ ++ <25%)”, the “CE: cognitive enhancer” value was “++ (5%≤ ++ <25%)” and the “DP: anti-depressant” value was “++ (5%≤ ++ <25%)”. The “MS: mood stabilizer” value was “+ (LOQ≤ + <5%)”, the “PS: anti-psychotic” value was “+ (LOQ≤ + <5%)” and the “SD: sedative hypnotic” value was “+ (LOQ≤ + <5%)”. For the same molecule, the “UN: uncharacterized CNS activity” value was “++ (5%≤ ++ <25%)”.

In the case of `CNC[C@H]1OC[C@@H](C)c2ccccc21` [Example 19, N-methyl-1-((1S,4S)-4-methylisochroman-1-yl)methanamine], the minimal effective dose is reported as 3 to 10 mg/kg, the “AD: ADHD (SmartCube probability)” value is reported as “+ (LOQ≤ + <5%)” and the “AG: analgesic (SmartCube probability)” value is reported as “++ (5%≤ ++ <25%)”. The “AX: anxiolytic (SmartCube probability)” value was “++ (5%≤ ++ <25%)”, the “CE: cognitive enhancer” value was “++ (5%≤ ++ <25%)” and the “DP: anti-depressant” value was “++ (5%≤ ++ <25%)”. The “MS: mood stabilizer” value was “++ (5%≤ ++ <25%)”, the “PS: anti-psychotic” value was “++ (5%≤ ++ <25%)” and the “SD: sedative hypnotic” value was “+ (LOQ≤ + <5%)”. The “UN: uncharacterized CNS activity” value was “++ (5%≤ ++ <25%)”.

For `CNC[C@@H]1OC[C@@H](C)c2ccccc21` [Example 20, N-methyl-1-((1R,4S)-4-methylisochroman-1-yl)methanamine], the minimal effective dose was under 3 mg/kg, the “AD: ADHD (SmartCube probability)” value was “+ (LOQ≤ + <5%)” and the “AG: analgesic (SmartCube probability)” value was “+ (LOQ≤ + <5%)”. The “AX: anxiolytic (SmartCube probability)” value was “++ (5%≤ ++ <25%)”, the “CE: cognitive enhancer” value was “++ (5%≤ ++ <25%)” and the “DP: anti-depressant” value was “++ (5%≤ ++ <25%)”. For the same molecule, the “MS: mood stabilizer” value was “+ (LOQ≤ + <5%)”, the “PS: anti-psychotic” value was “++++ (50%≤ ++++)” and the “SD: sedative hypnotic” value was “++ (5%≤ ++ <25%)”. The “UN: uncharacterized CNS activity” value was “++++ (50%≤ ++++)”.
